Measurements: ChEMBL document CHEMBL1137601, “Catalysis of zinc transfer by D-penicillamine to secondary chelators” (J Med Chem, 2007)

How the values were obtained:
[1] = target: T1, Carboxypeptidase A1 (Bos taurus) (UniProt P00730); assay: Inhibition of bovine ZnCPD pretreated at 0.25 mM assessed as residual enzyme activity in presence of 1 mM ethylenediaminetetraacetic acid within 20 mins
T1 sequence (whole entry): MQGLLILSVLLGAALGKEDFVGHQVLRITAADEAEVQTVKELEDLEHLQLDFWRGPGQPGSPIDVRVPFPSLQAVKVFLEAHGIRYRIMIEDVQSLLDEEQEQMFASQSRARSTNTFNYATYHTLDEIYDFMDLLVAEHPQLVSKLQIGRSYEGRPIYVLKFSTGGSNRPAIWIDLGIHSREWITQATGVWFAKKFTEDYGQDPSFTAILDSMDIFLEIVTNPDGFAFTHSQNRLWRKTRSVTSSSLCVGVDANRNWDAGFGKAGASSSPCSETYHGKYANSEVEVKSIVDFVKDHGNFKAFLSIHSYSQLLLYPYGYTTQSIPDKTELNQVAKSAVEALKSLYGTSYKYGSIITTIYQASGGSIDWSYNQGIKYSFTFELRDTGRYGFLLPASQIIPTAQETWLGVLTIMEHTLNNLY

[2] = target: T1, Carboxypeptidase A1 (Bos taurus); assay: Inhibition of bovine ZnCPD pretreated at 0.25 mM assessed as residual enzyme activity in presence of 2.5 uM thionenin after 17 mins
[3] = target: T1, Carboxypeptidase A1 (Bos taurus); assay: Inhibition of bovine ZnCPD pretreated at 5 mM assessed as residual enzyme activity in presence of 1 mM ethylenediaminetetraacetic acid within 7 mins
[4] = target: T1, Carboxypeptidase A1 (Bos taurus); assay: Inhibition of bovine ZnCPD pretreated for 200 seconds at 1.5 mM assessed as transfer of zinc(II) from ZnCPD to chelator 4-(2-pyridylazo)-resorcinol; parameters: scale not given: the % may be the effect or the level left

Activity [1]: 1% | Activity [2]: 1.5% | Activity [3]: 0.1% | Activity [4]: 45%
Structure (SMILES): CC(C)(S)[C@@H](N)C(=O)O
